Read-outs that look alike come from different tables or passages of the source.
How the values were obtained:
[1] = parameters: method as in Pei et al. [2008]; conditions: oral administration at 100 mg/kg; ref Pei et al. [2008]; cited from earlier work
[2] = Excretion of Sal A from rats (feces, urine, bile; UPLC–MS/MS); assay type: in vivo, Sprague-Dawley rats; conditions: single oral dose 20 mg/kg
Description: Twelve healthy, intact Sprague-Dawley rats (male/female, 1/1, 185-215 g, Certificate No. SCXK 2006-0009) were purchased from Vital River Laboratories (Beijing, China). The rats were maintained in air-conditioned animal quarters with alternating 12 h light/dark cycles at a room temperature of 22 ± 2 °C and a relative humidity of 50 ± 10%. The rodents were given a commercial rat chow and water ad libitum. The experiment started after acclimation to the facilities for 7 days. The studies were conducted under protocols approved by the Ethics Committee of Laboratory Animals of the Affiliated Hospital of Qingdao University ([…] 2013-2-4-01). In the urine and feces excretion studies, rats were treated as follows. After acclimation to the facilities for 7 days in metabolism cages and being fasted overnight (∼12 h) with free access to water, six rats (male/female, 1/1) were given a single dose of Sal A at 20 mg/kg orally. Blank feces and urine were got prior to administration. […] These samples were immediately frozen and maintained at -80 °C until analysis. In the bile excretion study, rats were treated as follows. After acclimation to the facilities for 7 days and being fasted overnight (∼12 h) with free access to water, six rats (male/female, 1/1) received a bile duct intubation surgery. An oral dose of 20 mg/kg were given to the postoperative awake rats, and bile samples were collected prior and after the administration (from 0 to 2, 2 to 4, 4 to 6, 6 to 8, 8 to 12 and 12 to 24 h). The samples were immediately frozen and maintained at -80 °C immediately until analysis. After drying, feces were soaked in purified water containing VC 100 μg/mL (5 mL/g) overnight and treated with ultrasonic for 10 min. Homogenate was centrifuged at 13,400 rpm for 10 min. 200 μL of the supernatant was got for the UPLC-MS/MS analysis, along with 200 μL of urine and bile samples. Sample preparation was the same as sample preparation in “Pharmacokinetic study in vivo”.

[3] = Pharmacokinetic study in vivo (plasma, LC–MS, noncompartmental); conditions: both sexes, Sprague-Dawley, rat, rats; for MRT last: read-out: MRT0–t; for AUC(0-t) / Cmax: single dose
Description: Ninety-six healthy, intact Sprague-Dawley rats (male/female, 1/1, 185-215 g, Certificate No. SCXK 2006-0009) were purchased from Vital River Laboratories (Beijing, China). The rats were maintained in air-conditioned animal quarters with alternating 12 h light/dark cycles at a room temperature of 22 ± 2 °C and a relative humidity of 50 ± 10%. The rodents were given a commercial rat chow and water ad libitum. The experiment started after acclimation to the facilities for 7 days. All animal studies were conducted in accordance with “Principles of laboratory animal care” (NIH publication No. 85-23, revised 1985) and under protocols approved by the Ethic Committee of Laboratory Animals of the Affiliated Hospital of Qingdao University ([…] 2013-2-4-01). Rats were fasted overnight (∼12 h) and had free access to water throughout the experimental period. […] The doses applied in this study were determined according to, on the one hand, the doses applied in pharmacodynamic experiments in rats (Yang et al. [2011a]; Yang et al. [2011b]; Yu et al. [2012]; Hou et al. [2017]), and on the other hand, the results of our preliminary absorption experiments. The blood samples were taken crossly from the orbital sinus into tubes pretreated with heparin before dosing and subsequently at 0.083, 0.167, 0.25, 0.333, 0.5, 0.75, 1, 2, 4, 8, 12 and 24 h postdosing. After blood sampling, the samples were centrifuged at 4,500 rpm for 15 min at 4 °C to obtain 200 μL of plasma samples. These samples were immediately frozen and maintained at -80 °C until analysis. Plasma samples were thawed at room temperature before processing. To a 200 μL aliquot of plasma sample, 10 μL of VC (10 mg/mL) and 10 μL of the IS spiking solution (butyl paraben, 1 μg/mL) were added. Then, the mixture was acidified with 100 μL of 1 mol/L HCl and vortex-mixed with 800 μL of EtOAc for 3 min. […] EtOAc (800 μL) was added again to the lower aqueous phase and the extraction process was repeated. […] The residue was reconstituted in 100 μL of MeOH-H2O (50:50, v/v, containing VC 100 μg/mL). After centrifugation at 13,400 rpm for 5 min, 20 μL of the supernatant was injected to the LC-MS system. DAS pharmacokinetic software Data Analysis System Version 3.0 (Bontz Inc., Beijing, China) was used for pharmacokinetic analysis of Sal A concentrations. The noncompartmental model was applied for analysis of the data following intravenous and oral administration of Sal A. The peak plasma concentration (Cmax), the corresponding time (Tmax), the mean residence time (MRT) and the area under the concentration-time curve (AUC) could all be obtained. After intravenous and oral administration of Sal A to rats, plasma concentration was determined by LC-MS. The data obtained from each group was averaged. […] The oral bioavailability (F) was calculated by using AUCoral/dose divided by AUCiv/dose.

excretion via bile, mean % of the dose ([2]; bile duct intubated rats, 0–24 h): 0.00373%
dose excreted ([2]; both sexes, Sprague-Dawley, rat, feces, bile and urine, rats, read-out: recovery (accumulated excretion through feces, bile and urine), % of administered dose): < 1%
urinary excretion, mean % of the dose ([2]; rats, 0–96 h): 0.00252%
MRT last ([3]; iv, 50 ug/kg, i.v. 50 µg/kg): 0.62 h
Tmax ([3]; iv, 50 ug/kg, i.v. 50 µg/kg, read-out: Tmax): 0.08 h
half-life ([3]; iv, 50 ug/kg, i.v. 50 µg/kg, read-out: t1/2 (converted)): 6.16 h
AUC(0-t) ([3]; iv, 50 ug/kg, i.v. 50 µg/kg): 205 ng·h/mL
Cmax ([3]; iv, 50 ug/kg, i.v. 50 µg/kg): 579 ng/mL
bioavailability ([3]; po, 5 mg/kg, oral 5 mg/kg vs i.v. 50 µg/kg, AUCoral/dose divided by AUCiv/dose, read-out: F (oral bioavailability)): 0.52%
Tmax ([3]; po, 5 mg/kg, oral 5 mg/kg, read-out: Tmax): 1 h
half-life ([3]; po, 5 mg/kg, oral 5 mg/kg, read-out: t1/2 (converted)): 1.96 h
bioavailability ([3]; po, 10 mg/kg, oral 10 mg/kg vs i.v. 50 µg/kg, read-out: F (oral bioavailability)): 0.41%
Tmax ([3]; po, 10 mg/kg, oral 10 mg/kg, read-out: Tmax): 1 h
half-life ([3]; po, 10 mg/kg, oral 10 mg/kg, read-out: t1/2 (converted)): 1.72 h
bioavailability ([3]; po, 20 mg/kg, oral 20 mg/kg vs i.v. 50 µg/kg, read-out: F (oral bioavailability)): 0.39%
Tmax ([3]; po, 20 mg/kg, oral 20 mg/kg, read-out: Tmax): 1 h
half-life ([3]; po, 20 mg/kg, oral 20 mg/kg, read-out: t1/2 (converted)): 1.79 h
bioavailability ([3]; po, 20 mg/kg, oral in pure form, over the doses 5, 10 and 20 mg/kg, read-out: absolute (oral) bioavailability): 0.39 to 0.52%
half-life ([3]; po, 20 mg/kg, oral, over the doses 5, 10 and 20 mg/kg, read-out: half-life period (t1/2)): 1.72 to 1.96 h
Tmax ([3]; po, oral, 5–20 mg/kg, read-out: time to peak concentration in plasma (Tmax)): ≤ 1 h
MRT last ([3]; oral 5 mg/kg): 2.91 h
AUC(0-t) ([3]; oral 5 mg/kg): 106 ng·h/mL
Cmax ([3]; oral 5 mg/kg): 31.5 ng/mL
MRT last ([3]; oral 10 mg/kg): 2.33 h
AUC(0-t) ([3]; oral 10 mg/kg): 167 ng·h/mL
Cmax ([3]; oral 10 mg/kg): 57.4 ng/mL
MRT last ([3]; oral 20 mg/kg): 2.36 h
AUC(0-t) ([3]; oral 20 mg/kg): 317 ng·h/mL
Cmax ([3]; oral 20 mg/kg): 112 ng/mL
SMILES: O=C(/C=C/c1ccc(O)c(O)c1/C=C/c1ccc(O)c(O)c1)O[C@H](Cc1ccc(O)c(O)c1)C(=O)O [Sal A, Salvianolic acid A]
plasma half-life [1]: 3.29 h

From paper PMC6130628, “Some pharmacokinetic parameters of salvianolic acid A following single-dose oral administration to rats” (Pharmaceutical Biology, 2018)
